# Tests used:
# [1] = tested on: A549 cells; assay: Apoptosis prevention assay (C2 ceramide, Annexin-5); assay type: cell-based, human; conditions: 10 micrograms per ml, 30 min pretreatment
# [2] = tested on: HUVEC; assay: Endothelial tube formation assay; assay type: cell-based, human; conditions: 10 micrograms per ml, 20 hours
# Text: Positive control was vehicle only.
# [3] = tested on: hepatitis B virus (HBV) ayw strain; assay: HBV experimental assay in HepG2-2.2.15 cells (TaqMan PCR of secreted HBV DNA); assay type: cell-based; conditions: 10 micrograms per ml, six days
# [4] = tested on: Primary Human endothelial cells (HUVEC); assay: Endothelial cell migration assay; assay type: cell-based; conditions: 10 micrograms per ml, 22 hours
# Method: Thereafter, designated concentration of testing peptides—10 micrograms per ml—was added in duplicate wells.
# [5] = tested on: Streptococcus pneumoniae; assay: Streptococcus pneumoniae growth assay; assay type: cell-based; conditions: 10 micrograms per ml; 5×10^5 CFU/mL
# [6] = tested on: HCMV strain AD169; assay: HCMV plaque formation assay in MRC-5 cells; assay type: cell-based; conditions: 10 micrograms per ml, 7-10 days
# [7] = tested on: Ovalbumin-restimulated spleen cells of Balb/c mice; assay: Th1/Th2 cytokine profiling assay; assay type: cell-based, mouse; conditions: 10 micrograms per ml; murine spleen cells; Ovalbumin restimulation, 72 hours
Substance,reduction of the ceramide-induced apoptosis on human lung cells [1],inhibition of the tube formation of human endothelial cells [2] [%],inhibition of HBV replication as compared to the virus control infection [3] [%],inhibition of the migration of human endothelial cells [4] [%],inhibition of the growth of Streptococcus pneumoniae [5] [%],inhibition of HCMV plaque formation as compared to the virus control [6],change of the production of IL-5 [7],"production of IFN-γ, suppressed by [7] [%]","production of IL-2, induced by [7] [%]","production of IL-4, induced/increased by [7] [%]","production of TNF-alpha, induced by [7]","production of IFN-γ, induced by [7] [%]"
Pyr-His-Trp-Ser-Tyr-D-His(Bzl)-D-Leu-Arg-Pro-NHEt [Peptide 2],did not reduce,4,61.6,8,100,did not inhibit,did not significantly change,30.8,55.8,135.7,did not significantly change,
"Pyr-His-Trp-Ser-Tyr-Trp-Leu-Arg-Pro-Gly-NH2 (HWSYWLRPG; N-terminal pyroglutamate; C-terminal amide; printed: His-Trp-Ser-Tyr-Trp-Leu-Arg-Pro-Gly-) [Peptide 1, LHRH family peptide, commercially available]",22.65%,15,23,3,100,did not inhibit,did not significantly change,,47.1,70.6,45.1%,40.2

# Source: US20100204138A1, “USE OF TRP6-T[…] D-LEU6-[…] […] AGENTS” (priority 2007, published 2010)
